# Experiments:
# Experiment in all cases: KAM-matrix competition in K562 lysate;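 for 0.001 uM KAM: median log10 fold change of treatment over DMSO control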;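 for 0.01 uM KAM: median log10 fold change of treatment over DMSO control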;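 for 0.1 uM KAM: median log10 fold change of treatment over DMSO control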;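 for 1 uM KAM: median log10 fold change of treatment over DMSO control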;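 for 10 uM KAM: median log10 fold change of treatment over DMSO control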
# Type in all cases: binding
# TTN = target: T1, TTN (Homo sapiens, UniProt Q8WZ42);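 for 0.001 uM KAM: median log10 fold change of treatment over DMSO control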;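 for 0.01 uM KAM: median log10 fold change of treatment over DMSO control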;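 for 0.1 uM KAM: median log10 fold change of treatment over DMSO control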;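 for 1 uM KAM: median log10 fold change of treatment over DMSO control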;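 for 10 uM KAM: median log10 fold change of treatment over DMSO control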
# T1 construct: endogenous in cells; host or cells: K562
# Procedure: (§1) Supplement 12953_2017_125_MOESM1_ESM.zip/MS_Supp Info.xlsx, sheet "KAM" | column: 10 uM KAM; 1 uM KAM; 0.1 uM KAM; 0.01 uM KAM; 0.001 uM KAM; RB50
# MAP3K5 = target: T2, MAP3K5 (Homo sapiens, UniProt Q99683)
# T2 construct: endogenous in cells; host or cells: K562 cell lysate
# T2 sequence (Q99683 1-1374): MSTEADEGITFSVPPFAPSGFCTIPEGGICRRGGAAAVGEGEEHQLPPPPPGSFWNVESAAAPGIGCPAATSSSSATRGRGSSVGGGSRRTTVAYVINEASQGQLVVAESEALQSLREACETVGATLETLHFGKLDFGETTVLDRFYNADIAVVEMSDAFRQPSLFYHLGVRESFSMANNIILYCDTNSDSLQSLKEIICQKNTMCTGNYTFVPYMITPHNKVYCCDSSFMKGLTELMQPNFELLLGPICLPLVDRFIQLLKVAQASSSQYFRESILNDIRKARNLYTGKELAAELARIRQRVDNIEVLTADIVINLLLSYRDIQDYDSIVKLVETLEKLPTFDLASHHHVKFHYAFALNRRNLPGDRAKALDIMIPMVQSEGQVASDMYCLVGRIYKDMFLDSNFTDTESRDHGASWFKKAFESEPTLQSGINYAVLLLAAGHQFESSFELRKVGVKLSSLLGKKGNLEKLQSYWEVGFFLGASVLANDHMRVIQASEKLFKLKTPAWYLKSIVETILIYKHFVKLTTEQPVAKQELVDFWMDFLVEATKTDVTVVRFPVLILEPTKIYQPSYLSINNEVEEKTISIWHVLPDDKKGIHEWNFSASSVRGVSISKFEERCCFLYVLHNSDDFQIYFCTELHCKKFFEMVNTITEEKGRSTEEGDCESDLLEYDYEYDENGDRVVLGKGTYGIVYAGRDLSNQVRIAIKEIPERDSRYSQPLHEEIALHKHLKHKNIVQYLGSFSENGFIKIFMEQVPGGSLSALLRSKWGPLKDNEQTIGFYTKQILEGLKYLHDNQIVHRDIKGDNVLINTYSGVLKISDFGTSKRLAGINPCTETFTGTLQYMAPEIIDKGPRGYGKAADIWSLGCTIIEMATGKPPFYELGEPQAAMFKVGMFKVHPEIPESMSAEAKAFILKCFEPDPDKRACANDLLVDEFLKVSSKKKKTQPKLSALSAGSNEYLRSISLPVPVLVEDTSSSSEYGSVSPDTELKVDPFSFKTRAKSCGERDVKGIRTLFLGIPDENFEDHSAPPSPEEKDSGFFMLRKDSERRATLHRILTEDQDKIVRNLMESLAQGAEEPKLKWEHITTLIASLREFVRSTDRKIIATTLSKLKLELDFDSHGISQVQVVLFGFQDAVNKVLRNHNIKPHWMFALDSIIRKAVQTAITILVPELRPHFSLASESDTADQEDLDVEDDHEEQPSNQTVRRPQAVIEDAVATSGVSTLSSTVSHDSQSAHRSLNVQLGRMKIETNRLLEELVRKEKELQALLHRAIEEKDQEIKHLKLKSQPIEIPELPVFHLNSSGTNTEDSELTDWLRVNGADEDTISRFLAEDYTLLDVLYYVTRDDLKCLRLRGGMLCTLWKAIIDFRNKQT
# Procedure: as §1
# PRKCB = target: T3, PRKCB (Homo sapiens, UniProt P05771)
# T3 construct: endogenous in cells; host or cells: K562
# Procedure: as §1
# MAP2K3 = target: T4, MAP2K3 (Homo sapiens, UniProt P46734);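 for 0.001 uM KAM: median log10 fold change of treatment over DMSO control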;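 for 0.01 uM KAM: median log10 fold change of treatment over DMSO control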;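 for 0.1 uM KAM: median log10 fold change of treatment over DMSO control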;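 for 1 uM KAM: median log10 fold change of treatment over DMSO control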;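 for 10 uM KAM: median log10 fold change of treatment over DMSO control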
# T4 construct: endogenous in cells; host or cells: K562 cell lysate
# T4 sequence (P46734 1-347): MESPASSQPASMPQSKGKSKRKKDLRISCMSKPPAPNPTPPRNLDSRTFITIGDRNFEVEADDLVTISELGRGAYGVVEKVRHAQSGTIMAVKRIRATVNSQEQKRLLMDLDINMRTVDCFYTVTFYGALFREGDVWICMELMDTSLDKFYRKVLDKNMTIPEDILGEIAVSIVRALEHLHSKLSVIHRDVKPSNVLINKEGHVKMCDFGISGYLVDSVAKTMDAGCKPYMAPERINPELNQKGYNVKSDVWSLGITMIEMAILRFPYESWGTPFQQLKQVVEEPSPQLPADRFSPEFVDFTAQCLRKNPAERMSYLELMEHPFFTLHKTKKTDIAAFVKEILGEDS
# Procedure: as §1
# PRKDC = target: T5, PRKDC (Homo sapiens, UniProt P78527);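 for 0.001 uM KAM: median log10 fold change of treatment over DMSO control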;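 for 0.01 uM KAM: median log10 fold change of treatment over DMSO control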;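 for 0.1 uM KAM: median log10 fold change of treatment over DMSO control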;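 for 1 uM KAM: median log10 fold change of treatment over DMSO control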;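 for 10 uM KAM: median log10 fold change of treatment over DMSO control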
# T5 construct: endogenous in cells; host or cells: K562
# Procedure: as §1
# CSNK2A1 = target: T6, CSNK2A1 (Homo sapiens, UniProt P68400)
# T6 construct: endogenous in cells; host or cells: K562
# Procedure: as §1
# [1] = KAM 0.001-10 uM, read-out: RB50 (the source's name)
# [2] = read-out: RB50 (the source's name)
# T6 sequence (P68400 whole entry): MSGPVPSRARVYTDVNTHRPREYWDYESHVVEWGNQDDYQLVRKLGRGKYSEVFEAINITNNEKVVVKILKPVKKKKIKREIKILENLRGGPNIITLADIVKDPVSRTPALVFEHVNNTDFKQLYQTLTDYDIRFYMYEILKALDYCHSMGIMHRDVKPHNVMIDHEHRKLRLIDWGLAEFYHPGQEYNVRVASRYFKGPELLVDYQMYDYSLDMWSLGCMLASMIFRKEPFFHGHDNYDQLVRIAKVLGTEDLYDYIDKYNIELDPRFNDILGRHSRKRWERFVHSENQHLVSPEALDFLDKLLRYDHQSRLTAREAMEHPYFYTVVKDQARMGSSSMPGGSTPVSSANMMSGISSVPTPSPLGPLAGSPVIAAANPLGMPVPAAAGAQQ
# T3 sequence (P05771 whole entry): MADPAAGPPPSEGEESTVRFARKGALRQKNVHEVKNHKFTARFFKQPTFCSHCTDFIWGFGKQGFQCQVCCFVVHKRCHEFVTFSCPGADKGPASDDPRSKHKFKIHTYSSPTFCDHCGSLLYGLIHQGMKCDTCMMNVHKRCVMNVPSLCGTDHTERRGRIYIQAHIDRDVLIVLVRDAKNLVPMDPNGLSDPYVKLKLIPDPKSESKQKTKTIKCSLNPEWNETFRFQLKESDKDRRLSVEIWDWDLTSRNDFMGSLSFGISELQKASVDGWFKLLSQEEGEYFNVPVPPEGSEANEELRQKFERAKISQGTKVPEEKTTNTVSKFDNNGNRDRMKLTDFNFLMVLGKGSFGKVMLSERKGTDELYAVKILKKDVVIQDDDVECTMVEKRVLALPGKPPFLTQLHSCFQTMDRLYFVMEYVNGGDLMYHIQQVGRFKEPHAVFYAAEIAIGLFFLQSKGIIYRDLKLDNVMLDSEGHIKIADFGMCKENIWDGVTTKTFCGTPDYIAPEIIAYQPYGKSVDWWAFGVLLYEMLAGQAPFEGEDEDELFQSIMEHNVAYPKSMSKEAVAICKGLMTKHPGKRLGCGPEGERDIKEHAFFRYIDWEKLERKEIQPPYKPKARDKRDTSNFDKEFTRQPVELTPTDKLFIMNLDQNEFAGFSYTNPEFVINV
smiles,measurement,setting,value
N#CCc1ccc(Nc2nc(NCCCN)cc(Nc3cc(C4CC4)[nH]n3)n2)cc1 [KAM],IC50,TTN; [1],> 10 µM
same,0.001 uM KAM,TTN; relative to 0 uM KAM = 0,-0.03178
same,0.01 uM KAM,TTN; relative to 0 uM KAM = 0,0.01596
same,0.1 uM KAM,TTN; relative to 0 uM KAM = 0,-0.008464
same,1 uM KAM,TTN; relative to 0 uM KAM = 0,0.03427
same,10 uM KAM,TTN; relative to 0 uM KAM = 0,0.01084
same,median Log10 fold change,MAP3K5; 0.001 uM KAM,-0.02718
same,median Log10 fold change,MAP3K5; 0.01 uM KAM,-0.01436
same,median Log10 fold change,MAP3K5; 0.1 uM KAM,-0.08414
same,median Log10 fold change,MAP3K5; 1 uM KAM,-0.1836
same,median Log10 fold change,MAP3K5; 10 uM KAM,-0.3705
same,IC50,MAP3K5; [2],4.18 µM
same,median Log10 fold change,PRKCB; 0.001 uM KAM,-0.003193
same,median Log10 fold change,PRKCB; 0.01 uM KAM,-0.01706
same,median Log10 fold change,PRKCB; 0.1 uM KAM,-0.1711
same,median Log10 fold change,PRKCB; 1 uM KAM,-0.4944
same,median Log10 fold change,PRKCB; 10 uM KAM,-0.6051
same,IC50,PRKCB; [2],0.354 µM
same,IC50,MAP2K3; [1],> 10 µM
same,0.001 uM KAM,MAP2K3; relative to 0 uM KAM = 0,0.005145
same,0.01 uM KAM,MAP2K3; relative to 0 uM KAM = 0,-0.01205
same,0.1 uM KAM,MAP2K3; relative to 0 uM KAM = 0,-0.0928
same,1 uM KAM,MAP2K3; relative to 0 uM KAM = 0,-0.1584
same,10 uM KAM,MAP2K3; relative to 0 uM KAM = 0,-0.2828
same,IC50,PRKDC; [1],> 10 µM
same,0.001 uM KAM,PRKDC; relative to 0 uM KAM = 0,-0.0162
same,0.01 uM KAM,PRKDC; relative to 0 uM KAM = 0,-0.0236
same,0.1 uM KAM,PRKDC; relative to 0 uM KAM = 0,-0.1053
same,1 uM KAM,PRKDC; relative to 0 uM KAM = 0,-0.1689
same,10 uM KAM,PRKDC; relative to 0 uM KAM = 0,-0.08641
same,median Log10 fold change,CSNK2A1; 0.001 uM KAM,-0.001285
same,median Log10 fold change,CSNK2A1; 0.01 uM KAM,-0.02001
same,median Log10 fold change,CSNK2A1; 0.1 uM KAM,-0.3204
same,median Log10 fold change,CSNK2A1; 1 uM KAM,-0.6577
same,median Log10 fold change,CSNK2A1; 10 uM KAM,-0.7357
same,IC50,CSNK2A1; [2],0.117 µM

# Reference: article PMC5513037, “Examining the influence of specificity ligands and ATP-competitive ligands on the overall effectiveness of bivalent kinase inhibitors” (Proteome Science, 2017)
